System: over active bladder
Settings: oral, 5 mg pills three times per day
Procedure: Their doctor prescribes an anti-cholinergic agent, oxybutynin chloride, taken orally three times per day in 5 mg pills.
Alternatively, their doctor prescribes an oxybutynin urethral suppository of the invention. Before leaving home, they open the individually wrapped suppository, grasping it by the handle; they insert the meltable portion, containing up to 5 mg of oxybutynin chloride, into their urethra. […] If necessary, the person can remove the remaining portions of the suppository and insert a new suppository to prevent uncontrolled voiding episodes.

CCN(CC)CC#CCOC(=O)C(O)(c1ccccc1)C1CCCCC1 (centres unmarked) [oxybutynin chloride]
effect on uncontrolled voiding episodes (patient one): eliminates the uncontrolled voiding episodes
side effects (patient two): severe dry mouth and dizziness
